Experiment: Exploratory stability study on Compound A drug substance (HPLC, water content, XRPD)
Assay type: physicochemical
Parameters: Water Content: unit: wt %
Description: This is a reverse phase high performance liquid chromatography (HPLC) method devised to determine the assay and impurity profile of Compound A for release and stability testing. The method was qualified for its intended uses. Forced degradation studies were performed and used to qualify this method as stability indicating. The HPLC parameters are listed below in Table 6.
An exploratory stability study on Compound A is on-going. The stability of Compound A will be studied at 5° C., 25° C./60% RH, and 40° C./75% RH with sampling points at 1, 2, 3, and 6 months. Samples will be analyzed using the stability indicating method TEST-05187 (high performance liquid chromatography (HPLC)).
The critical quality attributes of the drug substance Compound A that will be monitored are appearance, purity, assay (wt %), impurities, water content, and x-ray powder diffraction (XRPD). The container and closure system for the stability study consists of double plastic (PE) bags placed inside an high-density polyethylene (HDPE) container.

[1] = Initial Date (about 3 months after date of manufacture)
[2] = Storage at 5° C. +/− 3° C., Initial Date + 1 Month
[3] = Storage at 5° C. +/− 3° C., Initial Date + 2 Months
[4] = Storage at 25° C. ± 2° C./60% RH ± 5%, Initial Date + 1 Month
[5] = Storage at 25° C. ± 2° C./60% RH ± 5%, Initial Date + 2 Months
[6] = Storage at 40° C. ± 2° C./75% RH ± 5%, Initial Date + 1 Month
[7] = Storage at 40° C. ± 2° C./75% RH ± 5%, Initial Date + 2 Months

N#Cc1ccc(O[C@H]2CC[C@H](NC(=O)c3ccc(N4CCC(CN5CCN(c6cc7c(cc6F)C(=O)N(C6CCC(=O)NC6=O)C7=O)CC5)CC4)nn3)CC2)cc1Cl (stereo partly shown) [Compound A, N-[(1r,4r)-4-(3-chloro-4-cyanophenoxy)cyclohexyl]-6-[4-({4-[2-(2,6-dioxopiperidin-3-yl)-6-fluoro-1,3-dioxo-2,3-dihydro-1H-isoindol-5-yl]piperazin-1-yl}methyl)piperidin-1-yl]pyridazine-3-carboxamide]
Appearance (At Date of Manufacture): Yellow
HPLC Assay (wt %) (At Date of Manufacture): 97.7 wt %
HPLC Impurities (%) RRT 0.50 (Intermediate 5) (At Date of Manufacture): 0.06%
HPLC Impurities (%) RRT 0.89 (At Date of Manufacture): 0.07%
HPLC Impurities (%) RRT 0.90 (At Date of Manufacture): ND (ND = <_0.02%)
HPLC Impurities (%) RRT 0.92 (At Date of Manufacture): 0.07%
HPLC Impurities (%) RRT 0.94 (At Date of Manufacture): ND (ND = <_0.02%)
HPLC Impurities (%) RRT 0.96 (Intermediate 2) (At Date of Manufacture): 0.16%
HPLC Impurities (%) RRT 1.02 (At Date of Manufacture): 0.39%
HPLC Impurities (%) RRT 1.04 (Intermediate 3) (At Date of Manufacture): 0.12%
HPLC Impurities (%) RRT 1.05 (Impurity 1) (At Date of Manufacture): <QL (QL = 0.05%)
HPLC Impurities (%) RRT 1.07 (At Date of Manufacture): 0.19%
HPLC Impurities (%) RRT 1.23 (At Date of Manufacture): 0.06%
HPLC Impurities (%) RRT 1.32 (At Date of Manufacture): ND (ND = <_0.02%)
HPLC Impurities (%) RRT 1.36 (Intermediate 9) (At Date of Manufacture): 0.05%
HPLC Impurities (%) RRT 1.39 (At Date of Manufacture): 0.67%
HPLC Impurities (%) RRT 1.54 (At Date of Manufacture): ND (ND = <_0.02%)
HPLC Purity (%) (At Date of Manufacture): 98.0%
Total Impurities (%) (At Date of Manufacture): 2.0%
Water Content (At Date of Manufacture): 0.27
Water Content (wt %) (At Date of Manufacture): 0.27 wt %
XRPD (At Date of Manufacture): Crystalline
Appearance [1]: Yellow
HPLC Assay (wt %) [1]: 99.5 wt %
HPLC Impurities (%) RRT 0.50 (Intermediate 5) [1]: 0.06%
HPLC Impurities (%) RRT 0.89 [1]: 0.08%
HPLC Impurities (%) RRT 0.90 [1]: <QL (QL = 0.05%)
HPLC Impurities (%) RRT 0.92 [1]: 0.06%
HPLC Impurities (%) RRT 0.94 [1]: ND (ND = <_0.02%)
HPLC Impurities (%) RRT 0.96 (Intermediate 2) [1]: 0.18%
HPLC Impurities (%) RRT 1.02 [1]: 0.38%
HPLC Impurities (%) RRT 1.04 (Intermediate 3) [1]: 0.11%
HPLC Impurities (%) RRT 1.05 (Impurity 1) [1]: ND (ND = <_0.02%)
HPLC Impurities (%) RRT 1.07 [1]: 0.15%
HPLC Impurities (%) RRT 1.23 [1]: 0.06%
HPLC Impurities (%) RRT 1.32 [1]: ND (ND = <_0.02%)
HPLC Impurities (%) RRT 1.36 (Intermediate 9) [1]: ND (ND = <_0.02%)
HPLC Impurities (%) RRT 1.39 [1]: 0.45%
HPLC Impurities (%) RRT 1.54 [1]: <QL (QL = 0.05%)
HPLC Purity (%) [1]: 98.4%
Total Impurities (%) [1]: 1.3%
Water Content [1]: 0.86
Water Content (wt %) [1]: 0.86 wt %
XRPD [1]: Crystalline
Appearance [2]: Yellow
HPLC Assay (wt %) [2]: 97.4 wt %
HPLC Impurities (%) RRT 0.50 (Intermediate 5) [2]: 0.05%
HPLC Impurities (%) RRT 0.89 [2]: 0.07%
HPLC Impurities (%) RRT 0.90 [2]: <QL (QL = 0.05%)
HPLC Impurities (%) RRT 0.92 [2]: <QL (QL = 0.05%)
HPLC Impurities (%) RRT 0.94 [2]: ND (ND = <_0.02%)
HPLC Impurities (%) RRT 0.96 (Intermediate 2) [2]: 0.18%
HPLC Impurities (%) RRT 1.02 [2]: 0.33%
HPLC Impurities (%) RRT 1.04 (Intermediate 3) [2]: 0.09%
HPLC Impurities (%) RRT 1.05 (Impurity 1) [2]: ND (ND = <_0.02%)
HPLC Impurities (%) RRT 1.07 [2]: 0.15%
HPLC Impurities (%) RRT 1.23 [2]: 0.05%
HPLC Impurities (%) RRT 1.32 [2]: ND (ND = <_0.02%)
HPLC Impurities (%) RRT 1.36 (Intermediate 9) [2]: <QL (QL = 0.05%)
HPLC Impurities (%) RRT 1.39 [2]: 0.58%
HPLC Impurities (%) RRT 1.54 [2]: <QL (QL = 0.05%)
HPLC Purity (%) [2]: 98.4%
Total Impurities (%) [2]: 1.5%
Water Content (wt %) [2]: 0.85 wt %
XRPD [2]: Crystalline
Appearance [3]: Yellow
HPLC Assay (wt %) [3]: 97.4 wt %
HPLC Impurities (%) RRT 0.50 (Intermediate 5) [3]: 0.05%
HPLC Impurities (%) RRT 0.89 [3]: 0.07%
HPLC Impurities (%) RRT 0.90 [3]: <QL (QL = 0.05%)
HPLC Impurities (%) RRT 0.92 [3]: 0.06%
HPLC Impurities (%) RRT 0.94 [3]: <QL (QL = 0.05%)
HPLC Impurities (%) RRT 0.96 (Intermediate 2) [3]: 0.17%
HPLC Impurities (%) RRT 1.02 [3]: 0.29%
HPLC Impurities (%) RRT 1.04 (Intermediate 3) [3]: <QL (QL = 0.05%)
HPLC Impurities (%) RRT 1.05 (Impurity 1) [3]: ND (ND = <_0.02%)
HPLC Impurities (%) RRT 1.07 [3]: 0.15%
HPLC Impurities (%) RRT 1.23 [3]: <QL (QL = 0.05%)
HPLC Impurities (%) RRT 1.32 [3]: 0.05%
HPLC Impurities (%) RRT 1.36 (Intermediate 9) [3]: <QL (QL = 0.05%)
HPLC Impurities (%) RRT 1.39 [3]: 0.61%
HPLC Impurities (%) RRT 1.54 [3]: <QL (QL = 0.05%)
HPLC Purity (%) [3]: 98.4%
Total Impurities (%) [3]: 1.5%
Water Content (wt %) [3]: 1.0 wt %
XRPD [3]: Crystalline
Appearance [4]: Yellow
HPLC Assay (wt %) [4]: 97.3 wt %
HPLC Impurities (%) RRT 0.50 (Intermediate 5) [4]: 0.05%
HPLC Impurities (%) RRT 0.89 [4]: 0.07%
HPLC Impurities (%) RRT 0.90 [4]: <QL (QL = 0.05%)
HPLC Impurities (%) RRT 0.92 [4]: 0.07%
HPLC Impurities (%) RRT 0.94 [4]: ND (ND = <0.02%)
HPLC Impurities (%) RRT 0.96 (Intermediate 2) [4]: 0.18%
HPLC Impurities (%) RRT 1.02 [4]: 0.34%
HPLC Impurities (%) RRT 1.04 (Intermediate 3) [4]: 0.07%
HPLC Impurities (%) RRT 1.05 (Impurity 1) [4]: ND (ND = <0.02%)
HPLC Impurities (%) RRT 1.07 [4]: 0.15%
HPLC Impurities (%) RRT 1.23 [4]: 0.05%
HPLC Impurities (%) RRT 1.32 [4]: ND (ND = <0.02%)
HPLC Impurities (%) RRT 1.36 (Intermediate 9) [4]: <QL (QL = 0.05%)
HPLC Impurities (%) RRT 1.39 [4]: 0.57%
HPLC Impurities (%) RRT 1.54 [4]: <QL (QL = 0.05%)
HPLC Purity (%) [4]: 98.3%
Total Impurities (%) [4]: 1.6%
Water Content [4]: 0.93
XRPD [4]: Crystalline
Appearance [5]: Yellow
HPLC Assay (wt %) [5]: 97.5 wt %
HPLC Impurities (%) RRT 0.50 (Intermediate 5) [5]: 0.05%
HPLC Impurities (%) RRT 0.89 [5]: 0.07%
HPLC Impurities (%) RRT 0.90 [5]: <QL (QL = 0.05%)
HPLC Impurities (%) RRT 0.92 [5]: 0.06%
HPLC Impurities (%) RRT 0.94 [5]: <QL (QL = 0.05%)
HPLC Impurities (%) RRT 0.96 (Intermediate 2) [5]: 0.17%
HPLC Impurities (%) RRT 1.02 [5]: 0.28%
HPLC Impurities (%) RRT 1.05 (Impurity 1) [5]: ND (ND = <0.02%)
HPLC Impurities (%) RRT 1.07 [5]: 0.15%
HPLC Impurities (%) RRT 1.23 [5]: 0.05%
HPLC Impurities (%) RRT 1.32 [5]: <QL (QL = 0.05%)
HPLC Impurities (%) RRT 1.36 (Intermediate 9) [5]: ND (ND = <0.02%)
HPLC Impurities (%) RRT 1.39 [5]: 0.65%
HPLC Impurities (%) RRT 1.54 [5]: <QL (QL = 0.05%)
HPLC Purity (%) [5]: 98.3%
Total Impurities (%) [5]: 1.5%
Water Content [5]: 1.2
XRPD [5]: Crystalline
Appearance [6]: Yellow
HPLC Assay (wt %) [6]: 97.3 wt %
HPLC Impurities (%) RRT 0.50 (Intermediate 5) [6]: 0.05%
HPLC Impurities (%) RRT 0.89 [6]: 0.06%
HPLC Impurities (%) RRT 0.90 [6]: <QL (QL = 0.05%)
HPLC Impurities (%) RRT 0.92 [6]: 0.07%
HPLC Impurities (%) RRT 0.94 [6]: ND (ND = <0.02%)
HPLC Impurities (%) RRT 0.96 (Intermediate 2) [6]: 0.18%
HPLC Impurities (%) RRT 1.02 [6]: 0.34%
HPLC Impurities (%) RRT 1.04 (Intermediate 3) [6]: 0.08%
HPLC Impurities (%) RRT 1.05 (Impurity 1) [6]: ND (ND = <0.02%)
HPLC Impurities (%) RRT 1.07 [6]: 0.14%
HPLC Impurities (%) RRT 1.23 [6]: 0.05%
HPLC Impurities (%) RRT 1.32 [6]: ND (ND = <0.02%)
HPLC Impurities (%) RRT 1.36 (Intermediate 9) [6]: <QL (QL = 0.05%)
HPLC Impurities (%) RRT 1.39 [6]: 0.58%
HPLC Impurities (%) RRT 1.54 [6]: <QL (QL = 0.05%)
HPLC Purity (%) [6]: 98.3%
Total Impurities (%) [6]: 1.6%
Water Content [6]: 1.0
XRPD [6]: Crystalline
Appearance [7]: Yellow
HPLC Assay (wt %) [7]: 97.2 wt %
HPLC Impurities (%) RRT 0.50 (Intermediate 5) [7]: 0.06%
HPLC Impurities (%) RRT 0.89 [7]: 0.06%
HPLC Impurities (%) RRT 0.90 [7]: <QL (QL = 0.05%)
HPLC Impurities (%) RRT 0.92 [7]: 0.07%
HPLC Impurities (%) RRT 0.94 [7]: <QL (QL = 0.05%)
HPLC Impurities (%) RRT 0.96 (Intermediate 2) [7]: 0.18%
HPLC Impurities (%) RRT 1.02 [7]: 0.28%
HPLC Impurities (%) RRT 1.04 (Intermediate 3) [7]: <QL (QL = 0.05%)
HPLC Impurities (%) RRT 1.05 (Impurity 1) [7]: ND (ND = <0.02%)
HPLC Impurities (%) RRT 1.07 [7]: 0.14%
HPLC Impurities (%) RRT 1.23 [7]: 0.06%
HPLC Impurities (%) RRT 1.32 [7]: <QL (QL = 0.05%)
HPLC Impurities (%) RRT 1.36 (Intermediate 9) [7]: ND (ND = <0.02%)
HPLC Impurities (%) RRT 1.39 [7]: 0.63%
HPLC Impurities (%) RRT 1.54 [7]: <QL (QL = 0.05%)
HPLC Purity (%) [7]: 98.3%
Total Impurities (%) [7]: 1.5%
Water Content [7]: 1.3
XRPD [7]: Crystalline
change in impurities and solid properties (after 2 months at all temperature stations): no increase in impurities nor change in solid properties
change in impurities and solid properties (after 5 months from the date of manufacture): no increase in impurities or change in solid properties
change in water content (stability study, all temperature stations): small increase in the water content

From patent US12043612B2, “Methods of manufacturing a bifunctional compound, ultrapure forms of the bifunctional compound, and dosage forms comprising the same” (Arvinas Operations, Inc., priority 2020, dated 2024)
